This is an account of results in paper PMC5706701, “Development of a homogenous high-throughput assay for inositol hexakisphosphate kinase 1 activity” (PLoS ONE, 2017).

Where a name gives a salt, the structure may show the parent alone. Read-outs that look alike come from different tables or passages of the source.

The experiment deals with T1, Human IP6K1 (Homo sapiens, UniProt Q92551).
T1 construct: GST (N, cleaved yes); made in house; host or cells: C43 E. coli, pGEX-6P-2
The experiment in a line: IP6K1 high-throughput screen of the Sigma LOPAC (ADP-Glo Max, single point).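 Also: final compound concentration 10µM in 5% DMSO.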 The experiment is classed as biochemical.

Setting [1] is: LOPAC single-point screen, ADP-Glo Max luminescence raw signal per well.
Setting [2] is: LOPAC single-point screen, Z-score relative to plate average and StDev.
Where [3] appears, read: Sigma LOPAC single-point screen, ADP-Glo Max raw signal per well.
Setting [4] is: Sigma LOPAC single-point screen, Z-score from plate average and StDev.
Where [5] appears, read: LOPAC single-point screen, ADP-Glo Max raw signal per well.
Where [6] appears, read: LOPAC single-point screen, Z-score against plate average and StDev.
Setting [7] is: LOPAC single-point screen, Z-score from raw signal with plate average and StDev.
[8] abbreviates: LOPAC single-point screen, Z-score from plate average and StDev.

T1 sequence (Q92551 whole entry): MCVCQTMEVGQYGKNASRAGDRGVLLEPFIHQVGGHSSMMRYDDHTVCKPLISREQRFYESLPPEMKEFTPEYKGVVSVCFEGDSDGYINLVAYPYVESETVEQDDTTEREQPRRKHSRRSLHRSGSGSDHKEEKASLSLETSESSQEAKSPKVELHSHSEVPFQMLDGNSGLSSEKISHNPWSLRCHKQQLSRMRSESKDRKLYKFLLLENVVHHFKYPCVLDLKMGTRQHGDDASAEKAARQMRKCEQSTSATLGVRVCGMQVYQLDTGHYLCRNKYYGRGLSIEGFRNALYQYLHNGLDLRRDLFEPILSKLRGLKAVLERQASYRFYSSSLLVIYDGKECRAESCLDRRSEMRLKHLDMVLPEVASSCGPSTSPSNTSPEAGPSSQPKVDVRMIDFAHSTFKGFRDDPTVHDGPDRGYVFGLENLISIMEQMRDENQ

Turning to `C[C@]12CC[C@@H](O)C[C@@H]1CC[C@@H]1[C@@H]2CC[C@]2(C)[C@@H](O)CC[C@@H]12` [5alpha-Androstane-3alpha,17beta-diol], under setting [1], the “Raw Signal” value is recorded as 54542. This molecule also gave a Z-score under setting [2] of -0.5937.

For the molecule `Oc1ccc2c3c1O[C@H]1[C@@H](O)CC[C@@]4(O)[C@@H](C2)N(CC2CCC2)CC[C@]314` [Nalbuphine hydrochloride], the “Raw Signal” value stood at 53889 and the Z-score is reported as -0.08477.

For the molecule `O=[N+]([O-])c1ccc(CSc2ncnc3c2ncn3[C@@H]2O[C@H](CO)[C@@H](O)[C@H]2O)cc1` [S-(4-Nitrobenzyl)-6-thioinosine], under setting [1], the “Raw Signal” value came out at 50827. Further, under setting [2], the Z-score is recorded as -0.5993.

With `C[C@H](N)CN1CCc2ccc(Br)cc21.C[C@H](N)CN1CCc2ccc(Br)cc21.O=C(O)/C=C/C(=O)O` [VER-3323 hemifumarate salt], the “Raw Signal” value under setting [3] came out at 59728. This molecule also came in with a Z-score under setting [4] of 0.8963.

Turning to `CN1C(=O)CCS(=O)(=O)C1c1ccc(Cl)cc1` (stereo not shown) [Chlormezanone], under setting [1], the “Raw Signal” value is reported as 52438. The same molecule displayed a Z-score under setting [2] of -0.5542.

On to `Cl.O=C(O)Cc1c[nH]cn1` [Imidazole-4-acetic acid hydrochloride], for which, under setting [5], the “Raw Signal” value worked out at 55616. In addition, the Z-score under setting [6] came to 0.09118.

Turning to `CC(C)Cc1ccc(C(C)C(=O)O)cc1` (racemic) [(±)-Ibuprofen], the “Raw Signal” value under setting [3] amounted to 57086. Under setting [4], this molecule registered a Z-score of 0.4524.

Turning to `O=C([O-])CCC(NC(=O)c1ccccc1C(=O)[O-])C(=O)[O-].[Na+].[Na+].[Na+]` [Phthalamoyl-L-glutamic acid trisodium], the “Raw Signal” value under setting [3] worked out at 58114. Under setting [4], this molecule had a Z-score of 0.4061.

Turning to `c1ccc2c(c1)OCC(C1=NCCN1)O2` (stereo not shown) [Idazoxan hydrochloride], under setting [3], the “Raw Signal” value was 58161. Under setting [4], this molecule returned a Z-score of 0.633.

Consider `Cl.OCc1c[nH]cn1` [4-Imidazolemethanol hydrochloride], for which the “Raw Signal” value under setting [5] is 56297. Besides, the Z-score under setting [6] is 0.2295.

Regarding `CN(C)CC/C=C1/c2ccccc2Sc2ccc(Cl)cc21` [Chlorprothixene hydrochloride], under setting [3], the “Raw Signal” value was 61517. For the same molecule, the Z-score under setting [4] turned out to be 0.6347.

In the case of `O=C1NCN(c2ccccc2)C12CCN(CCCC(c1ccc(F)cc1)c1ccc(F)cc1)CC2` [Fluspirilene], the “Raw Signal” value under setting [1] was determined as 52037. Besides, under setting [2], the Z-score is reported as -0.6357.

With `CC(=O)N[C@@H](Cc1c[nH]c2ccccc12)C(=O)OCc1cc(C(F)(F)F)cc(C(F)(F)F)c1` [L-732,138], under setting [1], the “Raw Signal” value is on record as 53722. Under setting [2], this molecule yielded a Z-score of -0.7382.

Consider `CC(C)(C)c1ccc(C(O)CCCN2CCC(C(O)(c3ccccc3)c3ccccc3)CC2)cc1` (stereo not shown) [Terfenadine], for which the “Raw Signal” value under setting [5] is recorded as 53926. In addition, under setting [7], the Z-score is -0.4076.

As to `C#CCOC(=O)C1=CCCN(C)C1` [Arecaidine propargyl ester hydrobromide], the “Raw Signal” value under setting [5] was determined as 56259. The molecule further registered a Z-score under setting [7] of -0.2913.

As to `NC(=NCc1ccccc1)NC(=O)c1nc(Cl)c(N)nc1N` [Benzamil hydrochloride], the “Raw Signal” value under setting [5] amounted to 59018. Besides, under setting [6], the Z-score was 0.1946.

For `Nc1c[n+](N2CCOCC2)no1.[Cl-]` [3-Morpholinosydnonimine hydrochloride], under setting [5], the “Raw Signal” value came out at 53200. Also, the Z-score under setting [7] is on record as -0.2005.

Regarding `CC[C@]1(O)C[C@H]2CN(CCc3c([nH]c4ccccc34)[C@@](C(=O)OC)(c3cc4c(cc3OC)N(C=O)[C@H]3[C@@](O)(C(=O)OC)[C@H](OC(C)=O)[C@]5(CC)C=CCN6CC[C@]43[C@@H]65)C2)C1` [Vincristine sulfate], the “Raw Signal” value under setting [3] amounted to 57865. Under setting [4], this molecule displayed a Z-score of 0.3577.

In the case of `CC(C)C[C@H](NC(=O)[C@H](O)[C@H](N)Cc1ccccc1)C(=O)O` [Epibestatin hydrochloride], the “Raw Signal” value under setting [5] turned out to be 58771. In addition, under setting [6], the Z-score is 0.1511.

Turning to `O=C(O)CCCCCCC1C(=O)NC(=O)N1CCC(O)C1CCCCC1` (stereo not shown) [BW 245C], the “Raw Signal” value under setting [1] turned out to be 64569. This molecule came in with a Z-score under setting [8] of 1.71.

For `CCn1c(=O)[nH]c2cc(Cl)c(Cl)cc21` [DCEBIO], under setting [1], the “Raw Signal” value is reported as 52025. Also, the Z-score under setting [2] was -0.6381.

`Cl.O=C(CCCN1CCC2(CC1)C(=O)N(CCc1ccc(N=C=S)cc1)CN2c1ccccc1)c1ccc(F)cc1`: the “Raw Signal” value under setting [5] came to 54409. Also, the Z-score under setting [6] turned out to be 0.002603.

`Cc1cccc(/C=C/c2ccccc2)n1` [SIB 1893]: under setting [5], the “Raw Signal” value was 55669. The same molecule showed a Z-score under setting [6] of -0.06893.

Turning to `c1ccc(-c2ccccn2)nc1` [2,2 -Bipyridyl], the “Raw Signal” value under setting [5] is on record as 56711. The molecule further registered a Z-score under setting [6] of 0.3136.

Regarding `O=C1CCC(c2ccc(-n3ccnc3)cc2)=NN1` [Imazodan], the “Raw Signal” value under setting [3] was found to be 60009. Also, the Z-score under setting [4] worked out at 0.9834.

With `CCN1CCc2nc(N)oc2CC1.Cl.Cl` [B-HT 933 dihydrochloride], the “Raw Signal” value under setting [5] turned out to be 56378. Under setting [7], this molecule had a Z-score of -0.2704.

With `CN1CCN(C2=Nc3ccccc3Oc3ccc(Cl)cc32)CC1` [Loxapine succinate], the “Raw Signal” value under setting [5] turned out to be 54983. In addition, the Z-score under setting [6] worked out at 0.09905.

As to `COCCCC/C(=N\OCCN)c1ccc(C(F)(F)F)cc1` [Fluvoxamine maleate], under setting [3], the “Raw Signal” value amounted to 56948. Also, the Z-score under setting [4] was 0.3617.

For the molecule `CC1=C(CC(=O)O)c2cc(F)ccc2/C1=C\c1ccc(S(C)(=O)=O)cc1` [Sulindac sulfone], the “Raw Signal” value under setting [5] was 56423. This molecule came in with a Z-score under setting [6] of 0.07756.

On to `CC(C)(C)NC[C@H](O)COc1nsnc1N1CCOCC1.O=C(O)/C=C\C(=O)O` [S(-)-Timolol maleate], for which, under setting [5], the “Raw Signal” value was determined as 57221. For the same molecule, the Z-score under setting [6] is given as 0.2326.

On to (-)-3-Methoxynaltrexone hydrochloride, for which, under setting [5], the “Raw Signal” value was determined as 54969. Also, the Z-score under setting [6] is on record as 0.0967.

As to `O=c1nc2[nH]c3ccccc3nc-2c(=O)[nH]1` [Alloxazine], under setting [5], the “Raw Signal” value worked out at 56241. The Z-score under setting [7] is -0.2945.

Consider `C[N+]1(C)[C@@H]2CC[C@H]1C[C@@H](OC(=O)C(CO)c1ccccc1)C2` (stereo partly shown) [Atropine methyl nitrate], for which the “Raw Signal” value under setting [3] came out at 60117. Under setting [4], this molecule came in with a Z-score of 0.3882.

On to `Cc1cc(C(C)(C)C)c(O)c(C)c1CC1=NCCN1` [Oxymetazoline hydrochloride], for which the “Raw Signal” value under setting [5] was 52488. Under setting [7], this molecule showed a Z-score of -0.3202.

`COc1cc(-c2ccc(=O)[nH]n2)ccc1OC(F)F` [Zardaverine]: under setting [5], the “Raw Signal” value is 57604. Moreover, under setting [6], the Z-score amounted to 0.307.

`CC(C)(Oc1ccc(C2CC2(Cl)Cl)cc1)C(=O)O` (stereo not shown) [Ciprofibrate]: the “Raw Signal” value under setting [3] is given as 63809. Also, under setting [4], the Z-score was 1.038.

Regarding LY-310,762 hydrochloride, the “Raw Signal” value under setting [5] came out at 55045. The same molecule gave a Z-score under setting [6] of 0.1095.

As to `C=CC(N)CCC(=O)O` (racemic) [(±)-gamma-Vinyl GABA], the “Raw Signal” value under setting [1] was found to be 68019. The Z-score under setting [8] is listed as 2.33.

Turning to `Nc1c2c(nc3ccccc13)CCCC2O.O=C(O)/C=C\C(=O)O` (stereo not shown) [Hydroxytacrine maleate], the “Raw Signal” value under setting [5] is on record as 53095. Also, under setting [7], the Z-score is on record as -0.4208.

As for `Br.CCCN(CCC)[C@@H]1CCc2cccc(O)c2C1` [R-(+)-8-Hydroxy-DPAT hydrobromide], the “Raw Signal” value under setting [3] is given as 58179. Under setting [4], this molecule showed a Z-score of 0.6117.

As to `OCCN1CCN(CC/C=C2/c3ccccc3Sc3ccc(C(F)(F)F)cc32)CC1` [cis-(Z)-Flupenthixol dihydrochloride], under setting [5], the “Raw Signal” value was found to be 56412. Besides, the Z-score under setting [6] came to 0.2528.

Turning to `CN(C(=O)Cc1ccc(Cl)c(Cl)c1)C(CN1CCCC1)c1cccc(OCC(=O)O)c1.Cl` (stereo not shown) [ICI 204,448 hydrochloride], under setting [5], the “Raw Signal” value is recorded as 53600. In addition, the Z-score under setting [7] is on record as -0.1333.

In the case of `CC(C(=O)O)c1ccc(CC2CCCC2=O)cc1` (stereo not shown) [loxoprofen], the “Raw Signal” value under setting [1] is on record as 49153. This molecule registered a Z-score under setting [2] of -0.8805.

As for `COC(=O)[C@@H](N)CCCN=C(N)N[N+](=O)[O-].Cl`, under setting [3], the “Raw Signal” value is 58464. This molecule had a Z-score under setting [4] of 0.6839.

As for `CC(=O)NCCc1c[nH]c2ccccc12` [N-Acetyltryptamine], under setting [1], the “Raw Signal” value is listed as 53398. This molecule gave a Z-score under setting [2] of -0.7952.

With `CN(C)S(=O)(=O)c1ccc2c(c1)/C(=C/c1cc3c([nH]1)CCCC3)C(=O)N2` [SU 6656], the “Raw Signal” value under setting [5] is on record as 57564. Also, the Z-score under setting [6] was found to be 0.2992.

`Clc1ccccc1C(c1ccccc1)(c1ccccc1)n1ccnc1` [Clotrimazole]: the “Raw Signal” value under setting [3] is 61041. This molecule yielded a Z-score under setting [4] of 0.5509.

For `CCCN(CCC)CCc1ccc(O)c(O)c1` [Dipropyldopamine hydrobromide], under setting [1], the “Raw Signal” value is 52448. The same molecule yielded a Z-score under setting [2] of -0.5522.

Turning to `CSc1nc(N)c2ncn([C@@H]3O[C@H](COP(=O)(O)OP(=O)(O)O)[C@@H](O)[C@H]3O)c2n1.[Na].[Na].[Na]`, the “Raw Signal” value under setting [5] was found to be 54295. The molecule also returned a Z-score under setting [6] of -0.01655.

Take `Cl.N[C@@H](Cc1cnc[nH]1)C(=O)O` [L-Histidine hydrochloride]: under setting [3], the “Raw Signal” value worked out at 61451. The molecule further returned a Z-score under setting [4] of 1.276.

Regarding `Oc1ccc(O)cc1` [Hydroquinone], the “Raw Signal” value under setting [3] is 59753. Further, the Z-score under setting [4] is 0.9314.

For `O=[N+]([O-])c1cc(O)c(O)c([N+](=O)[O-])c1` [3,5-Dinitrocatechol], the “Raw Signal” value under setting [5] came out at 56696. This molecule also displayed a Z-score under setting [6] of 0.3105.

With `C[N+](C)(C)CCCCCC[N+](C)(C)C` [Hexamethonium bromide], under setting [5], the “Raw Signal” value stood at 55496. The Z-score under setting [6] was 0.06681.
